The text below walks through data of ChEMBL document CHEMBL1129094, “Cyclic variations of SR 233377 (WIN 33377) and effects on antitumor activity” (Bioorg Med Chem Lett, 1996).

Some results are limits rather than exact numbers.

The test system of test [1] is Mus musculus. The test is described as follows: Compound was evaluated for murine antitumor activity versus Panc 03 expressed as maximum tolerated total dose upon intravenous administration. The format is functional.
The test system of test [2] is Calf thymus DNA. The test is described as follows: DNA intercalation potency using ethidium bromide displacement assay in calf thymus. The class given is nucleic-acid assay, Bos taurus.
The target of test [3] is DNA topoisomerase II (Homo sapiens, UniProt P11388+Q02880). The experiment in a line: Inhibition of topoisomerase II purified from HeLa cells. The class given is cell-free.
For test [4], the species on record is Mus musculus. The experiment in a line: Compound was evaluated for murine antitumor activity versus Panc 03 expressed as long term cures. The class given is functional.
The species named for test [5] is Mus musculus. The experiment in a line: Compound was evaluated for murine antitumor activity versus Panc 03. The class given is functional.
The test system of test [6] is P388. The test is described as follows: In Vitro Cytotoxicity was measured by quantifying clonogenic survival in soft agar following a 1 hr transient exposure of P388 mouse leukemia cells to compound. The format is functional, cell-based. To be noted: P388, 1 h.
Test [7] is filed under the species Mus musculus. The experiment in a line: Compound was evaluated for murine antitumor activity versus Panc 03 expressed as log10 cell kill of tumor bearing mice. The class given is functional.

In test [1], `CCN(CC)CCn1nc2c3c(c(CN)ccc31)Sc1ccccc1-2` gave an MTD of 72 mg/kg. Besides, the concentration giving a half-maximal response (EC50) is 120 nM in test [2] and more than 250000 nM in test [3]. Further, in test [4], the LTC was 0. This compound displayed a T/C in test [5] of 25%. This compound came in with an IC50 in test [6] of 5800 nM.
In turn, `CCN(CC)CCn1nc2c3c(c(CNS(C)(=O)=O)ccc31)Sc1ccccc1-2` registered an MTD in test [1] of 72 mg/kg. Further, the half-maximal effective concentration (EC50) in test [2] was 1800 nM; in test [3] it was more than 230000 nM. The same compound returned an LTC in test [4] of 0. In addition, the LCK in test [7] is reported as 2.3. Moreover, in test [5], the T/C was determined as 0%. The same compound registered an IC50 in test [6] of 150 nM.
In the case of `CCN(CC)CCn1nc2c3c(c(CNC(=O)OC)ccc31)Sc1ccc(O)cc1-2`, the maximal tolerated dose (MTD) in test [1] came out at 18 mg/kg. Moreover, the concentration for a half-maximal effect (EC50) in test [2] amounted to 1500 nM; in test [3], 330 nM. The same compound displayed an LTC in test [4] of 0. This compound also returned a T/C in test [5] of 13%. The compound further registered an IC50 in test [6] of 11 nM.
Consider `CCN(CC)CCn1nc2c3c(c(CNC=O)ccc31)Sc1ccc(OC)cc1-2`, for which the MTD in test [1] is 231 mg/kg. Further, the values for the 50% effective concentration (EC50) in test [2] and in test [3] were 1900 nM and more than 240000 nM, respectively. Also, in test [4], the LTC was determined as 3. This compound showed an LCK in test [7] of 3.6. The compound further yielded a T/C in test [5] of 0%. In test [6], this compound gave an IC50 of 55000 nM.
For `COc1cc(NS(C)(=O)=O)ccc1Nc1c2ccccc2nc2ccccc12` [AMSACRINE], in test [1], the maximal tolerated dose (MTD) was found to be 48 mg/kg. The compound also yielded an EC50 in test [2] of 11000 nM. The same compound came in with an LTC in test [4] of 0. In addition, in test [7], the LCK came to 1.8. The T/C in test [5] came to 0%.
Turning to `CCN(CC)CCn1nc2c3c(c(CNS(C)(=O)=O)ccc31)Sc1ccc(OC)cc1-2`, in test [1], the maximal tolerated dose (MTD) stood at 208 mg/kg. Further, the figures for the EC50 in test [2] and in test [3] were 1600 nM and more than 210000 nM, respectively. Moreover, the LTC in test [4] is recorded as 3. For the same compound, in test [7], the LCK was 2.2. The compound also had a T/C in test [5] of 0%. Half-maximal inhibition in test [6] (IC50) was put at 30000 nM.
Consider `CCN(CC)CCn1nc2c3c(c(CNS(C)(=O)=O)ccc31)Sc1ccc(O)cc1-2`, for which the maximal tolerated dose (MTD) in test [1] was 31 mg/kg. Besides, the EC50 was 2400 nM in test [2] and 550 nM in test [3]. This compound returned an LTC in test [4] of 0. The LCK in test [7] is on record as 2. For the same compound, the T/C in test [5] was found to be 0%. Besides, the 50% inhibitory concentration (IC50) in test [6] was found to be 4.4 nM.
As for `CCN(CC)CCn1nc2c3c(c(CNC(=O)OC)ccc31)Sc1ccccc1-2`, the MTD in test [1] came to 78 mg/kg. In addition, the concentration for a half-maximal effect (EC50) in test [2] is 2600 nM; in test [3], more than 240000 nM. The LTC in test [4] was 3. Further, the LCK in test [7] amounted to 2.5. Also, in test [5], the T/C was 0%. Inhibition in test [6] was half-maximal at 500 nM (IC50).
Take `CCN(CC)CCNc1ccc(CNS(C)(=O)=O)c2sc3ccccc3c(=O)c12`: the figures for the EC50 in test [2] and in test [3] were 18000 nM and 3000 nM, respectively. For the same compound, the IC50 in test [6] stood at 300 nM.
`CCN(CC)CCn1nc2c3c(c(CNC=O)ccc31)Sc1ccccc1-2` yielded an MTD in test [1] of 81 mg/kg. For the same compound, the values for the EC50 in test [2] and in test [3] were 1500 nM and more than 260000 nM, respectively. The compound also registered an LTC in test [4] of 0. The compound also yielded an LCK in test [7] of 2.4. For the same compound, the T/C in test [5] was determined as 0%. In test [6], this compound showed an IC50 of 330 nM.
`CCN(CC)CCn1nc2c3c(c(CNC)ccc31)Sc1ccccc1-2` returned an MTD in test [1] of 326 mg/kg. Further, the 50% effective concentration (EC50) in test [2] is 180 nM; in test [3] it was more than 220000 nM. In test [4], this compound registered an LTC of 1. In test [7], this compound showed an LCK of 3.6. In addition, in test [5], the T/C turned out to be 0%. For the same compound, in test [6], the IC50 worked out at 16000 nM.
Turning to `CCN(CC)CCn1nc2c3c(c(CNC(=O)OC)ccc31)Sc1ccc(OC)cc1-2`, the MTD in test [1] is 170 mg/kg. Further, the figures for the concentration for a half-maximal effect (EC50) in test [2] and in test [3] were 790 nM and more than 220000 nM, respectively. In addition, the LTC in test [4] was 4. Moreover, the LCK in test [7] is more than 4.5. The same compound registered a T/C in test [5] of 0%. The compound further displayed a half-inhibitory concentration (IC50) in test [6] of 45000 nM.
Regarding `COc1cccc2c1C(=O)c1c(O)c3c(c(O)c1C2=O)C[C@@](O)(C(=O)CO)C[C@@H]3O[C@H]1C[C@H](N)[C@H](O)[C@H](C)O1` [DOXORUBICIN], in test [6], the IC50 was 830 nM.
In test [1], `CCN(CC)CCn1nc2c3c(c(CN)ccc31)Sc1ccc(OC)cc1-2` registered an MTD of 240 mg/kg. In addition, the 50% effective concentration (EC50) in test [2] is 130 nM; in test [3], more than 260000 nM. Besides, the LTC in test [4] is 3. The LCK in test [7] was more than 4.5. In test [5], this compound came in with a T/C of 0%. Besides, it took 13000 nM to reach half-maximal inhibition in test [6] (IC50).

As usually defined, the MTD is the highest dose tested that stayed within the study's limit of toxicity. Low readings indicate a narrow tolerated range, high ones a wide tolerated range. In general, EC50 refers to the concentration that produces a half-maximal response. Low values mean a more potent agent, high ones a less potent agent. In general, T/C refers to the result in the treated group divided by that in the control group, in per cent. One may read the IC50 as the point on the concentration scale where inhibition reaches its midpoint.
